Assay results: patent US9884065B2, “Inhibiting activity of senescent cells using a glucocorticoid” (Buck Institute for Research on Aging, priority 2011, dated 2018)

What was measured:
NF-κB = NF-κB reporter-luciferase transactivation assay; assay type: cell-based, human; settings: senescent cells; 500 nM corticosterone or 100 nM cortisol
Protocol: Nuclear extracts were prepared using the nuclear extract kit (Active Motif), and NF-κB DNA binding was determined using the TransAM NF-κB p65 kit (Active Motif). For transactivation assays, cells infected with the NF-κB reporter-luciferase lentivirus were lysed in buffer (Promega), and luciferase activity was normalized to cell number, as described (Freund et al., 2011, EMBO J. 30:1536-1548).

Sen (XRA) HCA2 cells = assay: Senescent phenotypes of Sen (XRA) HCA2 cells (SA-Bgal, BrdU labeling, 53BP1 foci); assay type: cell-based, human; settings: 500 nM corticosterone or 100 nM cortisol, 7 days
Protocol: Conditioned media from presenescent (Pre) and the control and glucocorticoid-treated Sen (XRA) cells were analyzed by ELISA for IL-6. […] The percentage of presenescent (Pre) and Sen (XRA) cells that express SA-Bgal were scored (upper panel). A representative field corresponding to each condition is also shown (bottom panels). […] The percentage of cells with >2 53BP1 nuclear foci was determined using CELL PROFILER software. At least 200 cells were analyzed per condition.
HCA2 human neonatal foreskin, IMR-90 human fetal lung fibroblasts and T47D human breast cancer cells were obtained and cultured in 3% O2 and 10% CO2 as previously described (Coppe et al., 2008, PLoS Biol. 6:2853-2868; Rodier et al., 2009, Nature Cell Biol. 11:973-979; Coppe et al., 2010, PLoS ONE 5:e9188). Cells were induced to senesce by X-irradiation (10 Gy) or lentiviral expression of oncogenic RAS or MAP kinase kinase 6 (MKK6), as described (Coppe et al., 2008, PLoS Biol. 6:2853-2868; Rodier et al., 2009, Nature Cell Biol. 11:973-979; Freund et al., 2011, EMBO J. 30:1536-1548). Pre-senescent and senescent cells had 24-h BrdU labeling indices of >75% and <10% respectively (Rodier et al., 2009, Nature Cell Biol. 11:973-979); <10% and >70% respectively stained positive for senescence-associated beta-galactosidase activity (Dimri et al., 1995, Proc. Natl. Acad. Sci. USA 92:9363-9367) (Biovision senescence detection kit). HEK293FT packaging cells (Invitrogen) were used to generate lentiviruses. Corticosterone, cortisol and RU-486 were obtained from Sigma-Aldrich.

[1] = target: T1, mineralocorticoid receptor (Homo sapiens, UniProt P08235); assay: Immunostaining for mineralocorticoid receptor localization in HCA2 cells; settings: 500 nM corticosterone or 100 nM cortisol, 1 or 7 days
T1 sequence (P08235 1-984): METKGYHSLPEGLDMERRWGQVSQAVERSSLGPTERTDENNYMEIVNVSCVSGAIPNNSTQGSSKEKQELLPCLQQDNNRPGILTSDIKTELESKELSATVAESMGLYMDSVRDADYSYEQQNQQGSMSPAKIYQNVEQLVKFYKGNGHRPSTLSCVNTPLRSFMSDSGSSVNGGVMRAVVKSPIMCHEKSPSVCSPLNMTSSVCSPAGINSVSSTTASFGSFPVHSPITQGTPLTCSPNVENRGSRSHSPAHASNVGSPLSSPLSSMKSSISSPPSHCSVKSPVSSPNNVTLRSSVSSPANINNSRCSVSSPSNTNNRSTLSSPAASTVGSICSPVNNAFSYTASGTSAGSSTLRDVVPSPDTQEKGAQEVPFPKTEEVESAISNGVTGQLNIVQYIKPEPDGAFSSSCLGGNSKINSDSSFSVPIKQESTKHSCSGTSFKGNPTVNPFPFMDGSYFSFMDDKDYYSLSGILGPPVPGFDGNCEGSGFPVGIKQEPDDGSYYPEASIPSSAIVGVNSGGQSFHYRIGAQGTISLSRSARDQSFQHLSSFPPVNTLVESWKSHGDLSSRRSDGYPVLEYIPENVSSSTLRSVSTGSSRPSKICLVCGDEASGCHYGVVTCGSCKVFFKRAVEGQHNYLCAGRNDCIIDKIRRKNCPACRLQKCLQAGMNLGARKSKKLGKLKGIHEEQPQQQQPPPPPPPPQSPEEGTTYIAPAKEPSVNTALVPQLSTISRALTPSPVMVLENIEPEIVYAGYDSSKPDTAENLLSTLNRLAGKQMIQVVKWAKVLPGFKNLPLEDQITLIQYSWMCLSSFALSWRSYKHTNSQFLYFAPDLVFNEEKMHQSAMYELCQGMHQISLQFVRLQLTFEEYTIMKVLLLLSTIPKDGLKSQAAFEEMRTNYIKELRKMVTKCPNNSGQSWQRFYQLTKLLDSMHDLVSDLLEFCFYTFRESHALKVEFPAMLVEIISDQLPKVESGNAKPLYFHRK

IL-1α = assay: Immunostaining for IL-1α in HCA2 cells; assay type: cell-based, human; settings: senescent cells 7 days after irradiation; 500 nM corticosterone or 100 nM cortisol
Protocol: (FIG. 14B) mRNA extracted from cells described in (FIG. 14A) was used to quantify transcripts for IL-6 (normalized to tubulin). (FIG. 14C) Pre and Sen (XRA) cells, prepared as described in (FIG. 14A), were immunostained for IL-1α. Sen (XRA) cells were immunostained 7 days after irradiation.
Cells were cultured in 8-well chamber slides, fixed in 4% formaldehyde (Sigma) for 10 min at 4° C. and permeabilized in PBS-0.5% Triton for 10 min in 4° C.

IL-6 = assay: Initial drug screen (Prestwick Chemical Library), IL-6 ELISA of medium; assay type: cell-based, human; settings: 2.5 μM, 48 hours, HCA2 fibroblasts, 0.2% serum
Protocol: The initial drug screen was performed in a 96-well format using automated liquid handling with a Biomek FX (Beckman Coulter, CA). Senescent cells were plated 24 hours after X-irradiation at 7,500 cells per well in 96-well plates. Six days after plating the senescent cells, the pre-senescent cells were plated at 7,500 cells per well in 96-well plates. Twenty-four hours after pre-senescent plating, both pre-senescent and senescent cells were washed and incubated in low (0.2%) serum for 48 hours to arrest cell proliferation of the pre-senescent cells. […] Forty-eight hours after compound addition, the medium in each well was removed and frozen for assay by ELISA to quantitate the levels of IL-6. The cells, which remained in the wells after the medium was removed, were lysed and ATP levels were measured (ATPlite 1-step assay, Perkin Elmer, MA) to exclude compounds that lowered IL-6 through toxicity (cell death). Experimental wells in each plate were normalized to plate mean or same-plate DMSO controls for the ELISA and ATP assays, respectively.
To identify small molecules that may be potential SASP modulators, a screening strategy that entailed administering compounds to parallel 96-well plates containing human fibroblasts (strain HCA2) that were either quiescent or senescent was developed. […] After 48 hours, the medium from each well was removed, and the cells were lysed. […] Cell lysates were assayed for ATP as a surrogate for cell number.

Row | Compound | NF-κB transactivation activity (NF-κB) | fraction of cells that expressed SA-Bgal (Sen (XRA) HCA2 cells) | number of persistent DNA damage foci (53BP1) (Sen (XRA) HCA2 cells) | senescence growth arrest (24 h BrdU labeling index) (Sen (XRA) HCA2 cells) | mineralocorticoid receptor localization [1] | expression of IL-1α protein (nuclear staining) (IL-1α) | IL-6 secretion (ELISA) (IL-6)
1 | C[C@]12C[C@H](O)[C@H]3[C@@H](CCC4=CC(=O)CC[C@@]43C)[C@@H]1CC[C@@H]2C(=O)CO [corticosterone] | significantly decreased | no effect on the fraction of cells that expressed SA-Bgal | no effect on the number of persistent DNA damage foci | maintained their low 24 h BrdU labeling index | remained cytoplasmic | suppressed expression of IL-1α protein | suppressed IL-6 secretion
2 | C[C@]12CCC(=O)C=C1CC[C@@H]1[C@@H]2[C@@H](O)C[C@@]2(C)[C@H]1CC[C@]2(O)C(=O)CO [cortisol] | significantly decreased | no effect on the fraction of cells that expressed SA-Bgal | no effect on the number of persistent DNA damage foci | maintained their low 24 h BrdU labeling index | remained cytoplasmic | suppressed expression of IL-1α protein | suppressed IL-6 secretion
